Data on two molecules can be found in ChEMBL document CHEMBL1201862, “PubChem BioAssay data set” (2004).

The source made the active and inactive calls. How the calls were made is not given here.

The test concerns the target T1, Exodeoxyribonuclease V (Escherichia coli (strain K12), UniProt P04993+P07648+P08394).
T1 sequence (P04993 whole entry): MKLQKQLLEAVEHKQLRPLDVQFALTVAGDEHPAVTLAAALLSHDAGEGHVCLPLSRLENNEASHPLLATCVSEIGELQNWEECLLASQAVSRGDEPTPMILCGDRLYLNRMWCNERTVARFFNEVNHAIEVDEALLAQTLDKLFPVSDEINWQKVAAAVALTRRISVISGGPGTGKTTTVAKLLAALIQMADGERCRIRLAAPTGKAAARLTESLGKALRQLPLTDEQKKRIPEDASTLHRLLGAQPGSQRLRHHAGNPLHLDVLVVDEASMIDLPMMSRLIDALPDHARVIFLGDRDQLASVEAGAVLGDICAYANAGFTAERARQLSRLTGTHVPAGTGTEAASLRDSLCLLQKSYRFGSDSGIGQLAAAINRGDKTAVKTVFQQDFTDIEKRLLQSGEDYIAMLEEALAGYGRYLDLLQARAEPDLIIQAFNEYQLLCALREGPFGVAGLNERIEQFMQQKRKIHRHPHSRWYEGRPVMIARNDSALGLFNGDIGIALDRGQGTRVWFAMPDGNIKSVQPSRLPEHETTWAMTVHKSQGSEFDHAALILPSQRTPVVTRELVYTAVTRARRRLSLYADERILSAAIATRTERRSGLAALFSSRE
T1 sequence (P07648 whole entry): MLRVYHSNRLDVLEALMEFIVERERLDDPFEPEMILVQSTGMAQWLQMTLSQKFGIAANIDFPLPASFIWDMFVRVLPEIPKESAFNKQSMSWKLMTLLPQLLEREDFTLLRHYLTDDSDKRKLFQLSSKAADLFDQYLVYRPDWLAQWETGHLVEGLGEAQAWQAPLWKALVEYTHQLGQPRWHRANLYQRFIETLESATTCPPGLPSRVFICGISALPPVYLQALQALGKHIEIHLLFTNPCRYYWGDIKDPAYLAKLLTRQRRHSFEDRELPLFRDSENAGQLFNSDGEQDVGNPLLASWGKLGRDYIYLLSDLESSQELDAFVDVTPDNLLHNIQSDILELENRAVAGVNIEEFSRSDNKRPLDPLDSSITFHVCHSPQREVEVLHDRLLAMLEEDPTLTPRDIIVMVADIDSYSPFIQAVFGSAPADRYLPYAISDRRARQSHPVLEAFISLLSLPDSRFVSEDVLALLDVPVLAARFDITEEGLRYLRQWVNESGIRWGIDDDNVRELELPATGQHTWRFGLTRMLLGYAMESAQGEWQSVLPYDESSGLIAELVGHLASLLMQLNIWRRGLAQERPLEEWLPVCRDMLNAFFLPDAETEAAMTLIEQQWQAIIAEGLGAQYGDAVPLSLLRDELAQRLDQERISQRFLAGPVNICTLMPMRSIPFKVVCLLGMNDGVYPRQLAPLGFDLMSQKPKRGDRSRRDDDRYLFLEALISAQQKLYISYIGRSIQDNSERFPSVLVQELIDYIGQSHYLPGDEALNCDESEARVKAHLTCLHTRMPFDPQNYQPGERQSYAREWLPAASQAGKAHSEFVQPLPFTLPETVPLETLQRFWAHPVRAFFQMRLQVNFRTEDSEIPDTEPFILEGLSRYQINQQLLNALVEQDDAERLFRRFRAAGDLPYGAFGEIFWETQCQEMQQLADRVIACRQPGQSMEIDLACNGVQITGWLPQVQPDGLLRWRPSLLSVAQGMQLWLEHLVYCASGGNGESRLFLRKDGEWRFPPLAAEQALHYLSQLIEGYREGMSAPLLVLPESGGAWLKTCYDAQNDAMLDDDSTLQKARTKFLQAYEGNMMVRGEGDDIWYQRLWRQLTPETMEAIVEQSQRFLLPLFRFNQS
T1 sequence (P08394 whole entry): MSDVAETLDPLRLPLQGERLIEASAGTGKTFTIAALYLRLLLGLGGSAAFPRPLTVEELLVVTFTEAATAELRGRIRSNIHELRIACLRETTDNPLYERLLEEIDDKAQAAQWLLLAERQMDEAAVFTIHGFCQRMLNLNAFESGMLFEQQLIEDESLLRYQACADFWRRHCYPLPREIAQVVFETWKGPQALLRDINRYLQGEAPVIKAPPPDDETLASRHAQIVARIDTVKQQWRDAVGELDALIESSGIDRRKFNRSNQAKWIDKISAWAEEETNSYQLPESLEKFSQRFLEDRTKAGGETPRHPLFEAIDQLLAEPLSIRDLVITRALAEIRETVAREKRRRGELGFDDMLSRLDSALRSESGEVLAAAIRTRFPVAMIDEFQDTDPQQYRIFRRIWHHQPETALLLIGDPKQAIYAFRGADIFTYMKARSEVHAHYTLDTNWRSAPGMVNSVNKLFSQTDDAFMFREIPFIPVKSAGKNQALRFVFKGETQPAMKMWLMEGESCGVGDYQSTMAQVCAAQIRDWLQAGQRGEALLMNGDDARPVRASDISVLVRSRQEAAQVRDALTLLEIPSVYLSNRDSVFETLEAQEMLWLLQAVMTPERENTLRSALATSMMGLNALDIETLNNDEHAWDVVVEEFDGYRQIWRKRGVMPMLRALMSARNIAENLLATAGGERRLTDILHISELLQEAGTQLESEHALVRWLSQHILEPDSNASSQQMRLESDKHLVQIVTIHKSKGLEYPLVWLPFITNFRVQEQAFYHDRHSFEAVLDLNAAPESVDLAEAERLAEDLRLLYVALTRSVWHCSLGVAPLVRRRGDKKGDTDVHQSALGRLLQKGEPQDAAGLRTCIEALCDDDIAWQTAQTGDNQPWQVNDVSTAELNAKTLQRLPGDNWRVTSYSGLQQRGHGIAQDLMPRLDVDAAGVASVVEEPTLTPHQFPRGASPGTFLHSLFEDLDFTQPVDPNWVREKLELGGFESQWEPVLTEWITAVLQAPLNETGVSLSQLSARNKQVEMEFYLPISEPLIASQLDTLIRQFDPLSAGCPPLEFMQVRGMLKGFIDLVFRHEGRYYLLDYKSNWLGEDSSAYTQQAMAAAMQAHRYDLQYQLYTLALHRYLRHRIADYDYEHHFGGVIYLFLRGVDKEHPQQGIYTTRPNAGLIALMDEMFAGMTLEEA
Briefly: E. coli RecBCD inhibitors, dose response, counter-screen for AddAB inhibitor project, absorbance, V66 E. coli, mutant T4 phage (AID 492957). In kind it is functional, cell-based, Escherichia coli str. K-12 substr. MG1655.

`Cn1c(O)c(/C=N/NC(=O)c2cc3ccccc3cc2O)c2ccccc21`: the IC50 is > 119 µM (inactive).
The figure for `O=C(Nc1cccc(NC(=O)c2ccccc2Cl)c1)c1ccc([N+](=O)[O-])o1` is > 119 µM (inactive).

Usually IC50 stands for the point on the concentration scale where inhibition reaches its midpoint.
